From patent US20230017045A1, “PYRIDINE AND PYRIMIDINE CARBOXYLATE HERBICIDES AND METHODS OF USE THEREOF” (Dow AgroSciences LLC, priority 2017, published 2023)
Where two headings read alike, the source gives them in different places.

Test system: test plant species
Assay: Post-emergent herbicidal activity test (greenhouse, foliar spray, visual growth reduction)
Format: in vivo
Details: post-emergence, 336 h, 140 g ai/ha
Summary of the method: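 Scoring used a 0 to 100 percent visual scale of growth reduction against solvent-treated controls, read 14 d after spraying. Applications went onto plants at first or second true leaf stage, 187 L/ha, with crop oil concentrate and X-77 surfactant in the carrier. Post-treatment watering was by subirrigation to avoid wash-off.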

[1] = ALOMY: blackgrass (Alopecurus myosuroides), 14 days after application, read-out: Visual Growth Reduction (%) 14 Days After Application, ALOMY
[2] = AMARE: redroot pigweed (Amaranthus retroflexus), 14 days after application, read-out: Visual Growth Reduction (%) 14 Days After Application, AMARE
[3] = AVEFA: wild oat (Avena fatua), 14 days after application, read-out: Visual Growth Reduction (%) 14 Days After Application, AVEFA
[4] = CHEAL: lambsquarters (Chenopodium album), 14 days after application, read-out: Visual Growth Reduction (%) 14 Days After Application, CHEAL
[5] = CIRAR: canada thistle (Cirsium arvense), 14 days after application, read-out: Visual Growth Reduction (%) 14 Days After Application, CIRAR
[6] = CYPES: yellow nutsedge (Cyperus esculentus), 14 days after application, read-out: Visual Growth Reduction (%) 14 Days After Application, CYPES
[7] = DIGSA: crabgrass (Digitaria sanguinalis), 14 days after application, read-out: Visual Growth Reduction (%) 14 Days After Application, DIGSA
[8] = ECHCG: barnyardgrass (Echinochloa crus-galli), 14 days after application, read-out: Visual Growth Reduction (%) 14 Days After Application, ECHCG
[9] = IPOHE: ivy-leaf morning glory (Ipomoea hederacea), 14 days after application, read-out: Visual Growth Reduction (%) 14 Days After Application, IPOHE
[10] = KCHSC: kochia (Bassia scoparia), 14 days after application, read-out: Visual Growth Reduction (%) 14 Days After Application, KCHSC
[11] = ORYSA: rice (Oryza sativa), 14 days after application, read-out: Visual Growth Reduction (%) 14 Days After Application, ORYSA
[12] = SETFA: giant foxtail (Setaria faberi), 14 days after application, read-out: Visual Growth Reduction (%) 14 Days After Application, SETFA
[13] = SORVU: grain sorghum (Sorghum vulgare), 14 days after application, read-out: Visual Growth Reduction (%) 14 Days After Application, SORVU
[14] = STEME: common chickweed (Stellaria media), 14 days after application, read-out: Visual Growth Reduction (%) 14 Days After Application, STEME
[15] = TRZAS: wheat, spring (Triticum aestivum), 14 days after application, read-out: Visual Growth Reduction (%) 14 Days After Application, TRZAS
[16] = blackgrass (Alopecurus myosuroides), 14 Days After Application, read-out: Visual Growth Reduction (%) ALOMY
[17] = canada thistle (Cirsium arvense), 14 Days After Application, read-out: Visual Growth Reduction (%) CIRAR
[18] = crabgrass (Digitaria sanguinalis), 14 Days After Application, read-out: Visual Growth Reduction (%) DIGSA
[19] = lambsquarters (Chenopodium album), 14 Days After Application, read-out: Visual Growth Reduction (%) CHEAL
[20] = redroot pigweed (Amaranthus retroflexus), 14 Days After Application, read-out: Visual Growth Reduction (%) AMARE
[21] = wild oat (Avena fatua), 14 Days After Application, read-out: Visual Growth Reduction (%) AVEFA
[22] = yellow nutsedge (Cyperus esculentus), 14 Days After Application, read-out: Visual Growth Reduction (%) CYPES

SMILES | pest or weed control at 140 g/ha [1] [%] | pest or weed control at 140 g/ha [2] [%] | pest or weed control at 140 g/ha [3] [%] | pest or weed control at 140 g/ha [4] [%] | pest or weed control at 140 g/ha [5] [%] | pest or weed control at 140 g/ha [6] [%] | pest or weed control at 140 g/ha [7] [%] | pest or weed control at 140 g/ha [8] [%] | pest or weed control at 140 g/ha [9] [%] | pest or weed control at 140 g/ha [10] [%] | pest or weed control at 140 g/ha [11] [%] | pest or weed control at 140 g/ha [12] [%] | pest or weed control at 140 g/ha [13] [%] | pest or weed control at 140 g/ha [14] [%] | pest or weed control at 140 g/ha [15] [%] | pest or weed control at 140 g/ha [16] [%] | pest or weed control at 140 g/ha [17] [%] | pest or weed control at 140 g/ha [18] [%] | pest or weed control at 140 g/ha [19] [%] | pest or weed control at 140 g/ha [20] [%] | also measured
COC(=O)c1nc(-c2c(Cl)cc(C(F)(F)F)cc2SC)ccc1Cl [F122, methyl 3-chloro-6-(2-chloro-6-(methylthio)-4-(trifluoromethyl)phenyl)picolinate] | 0 to 29 | 95 to 100 | 0 to 29 | 60 to 74 | 60 to 74 | 0 to 29 | 30 to 44 | 45 to 59 | 95 to 100 | 75 to 84 | 0 to 29 | 85 to 94 | 75 to 84 | 0 to 29 | 0 to 29 | – | – | – | – | – | –
COC(=O)c1nc(-c2ccc(C(F)(F)F)cc2Cl)c(F)cc1F [F373, Methyl 6-(2-chloro-4-(trifluoromethyl)phenyl)-3,5-difluoropicolinate] | – | – | – | – | – | – | – | 75 to 84 | 95 to 100 | 75 to 84 | 0 to 29 | 75 to 84 | 95 to 100 | 30 to 44 | 30 to 44 | 0 to 29 | 95 to 100 | 95 to 100 | 95 to 100 | 95 to 100 | pest or weed control at 140 g/ha [21]: 45 to 59%; pest or weed control at 140 g/ha [22]: 0 to 29%
COC(=O)c1nc(-c2ccc(C(F)(F)F)cc2Cl)c(F)cc1Cl [F107, methyl 3-chloro-6-(2-chloro-4-(trifluoromethyl)phenyl)-5-fluoropicolinate] | 30 to 44 | 95 to 100 | 45 to 59 | 95 to 100 | 95 to 100 | 0 to 29 | 95 to 100 | 0 to 29 | 95 to 100 | 60 to 74 | 0 to 29 | 45 to 59 | 95 to 100 | 0 to 29 | 45 to 59 | – | – | – | – | – | –
O=C(O)c1nc(-c2cnc(C(F)(F)F)cc2Cl)ccc1Cl [F205, 4′,5-Dichloro-6′-(trifluoromethyl)-[2,3′-bipyridine]-6-carboxylic acid] | – | – | – | – | – | – | – | 45 to 59 | 95 to 100 | 0 to 29 | 0 to 29 | 75 to 84 | 75 to 84 | 0 to 29 | 0 to 29 | 0 to 29 | 75 to 84 | 45 to 59 | 75 to 84 | 30 to 44 | pest or weed control at 140 g/ha [21]: 0 to 29%; pest or weed control at 140 g/ha [22]: 0 to 29%
COC(=O)c1nc(-c2ccc(F)cc2)c(F)cc1Cl [F227, Methyl 3-chloro-5-fluoro-6-(4-fluorophenyl) picolinate] | – | – | – | – | – | – | – | 0 to 29 | 60 to 74 | 0 to 29 | 0 to 29 | 0 to 29 | 60 to 74 | 0 to 29 | 0 to 29 | 0 to 29 | 30 to 44 | 30 to 44 | 75 to 84 | 0 to 29 | pest or weed control at 140 g/ha [21]: 0 to 29%; pest or weed control at 140 g/ha [22]: 0 to 29%
COC(=O)c1nc(-c2ccc(F)c3c2OC(F)(F)O3)c(F)cc1Cl [F234, Methyl 3-chloro-5-fluoro-6-(2,2,7-trifluorobenzo[d][1,3]dioxol-4-yl)picolinate] | – | – | – | – | – | – | – | 0 to 29 | 60 to 74 | 0 to 29 | 0 to 29 | 0 to 29 | 0 to 29 | 0 to 29 | 0 to 29 | 0 to 29 | 0 to 29 | 30 to 44 | 30 to 44 | 0 to 29 | pest or weed control at 140 g/ha [21]: 0 to 29%; pest or weed control at 140 g/ha [22]: 0 to 29%
COC(=O)c1nc(-c2ccc(SC(F)(F)F)cc2Cl)c(F)cc1Cl [F135, Methyl 3-chloro-6-(2-chloro-4-((trifluoromethyl)thio)phenyl)-5 fluoropicolinate] | 30 to 44 | 95 to 100 | 60 to 74 | 85 to 94 | 95 to 100 | 0 to 29 | 95 to 100 | 45 to 59 | 95 to 100 | 85 to 94 | 0 to 29 | 85 to 94 | 95 to 100 | 0 to 29 | 45 to 59 | – | – | – | – | – | –
COC(=O)c1nc(-c2cc(F)c(Cl)cc2Cl)ccc1Cl [F65, Methyl 3-chloro-6-(2,4-dichloro-5-fluorophenyl) picolinate] | 0 to 29 | 95 to 100 | 0 to 29 | 60 to 74 | 85 to 94 | 0 to 29 | 95 to 100 | 60 to 74 | 95 to 100 | 0 to 29 | 30 to 44 | 85 to 94 | 60 to 74 | 0 to 29 | – | – | – | – | – | – | –
COC(=O)c1nc(-c2ccc(C#N)cc2F)c(F)cc1Cl [F378, Methyl 3-chloro-6-(4-cyano-2-fluorophenyl)-5-fluoropicolinate] | – | – | – | – | – | – | – | 0 to 29 | 95 to 100 | 45 to 59 | 0 to 29 | 60 to 74 | 75 to 84 | 0 to 29 | 0 to 29 | 0 to 29 | 45 to 59 | 60 to 74 | 75 to 84 | 45 to 59 | pest or weed control at 140 g/ha [21]: 0 to 29%; pest or weed control at 140 g/ha [22]: 0 to 29%
CC(F)(F)c1ccc(-c2ccc(Cl)c(C(=O)O)n2)c(Cl)c1 [F111, 3-Chloro-6-(2-chloro-4-(1,1-difluoroethyl)phenyl) picolinic acid] | 60 to 74 | 95 to 100 | 60 to 74 | 95 to 100 | 95 to 100 | 0 to 29 | 85 to 94 | 95 to 100 | 95 to 100 | 95 to 100 | 0 to 29 | 75 to 84 | 85 to 94 | – | 75 to 84 | – | – | – | – | – | –
